Converted amounts (≈) assume the structure as drawn.
Key:
[1] = test system: Trichophyton mentagrophytes SM-110; experiment: Antifungal activity evaluation test: minimum inhibitory concentration (MIC), broth dilution by reference to CLSI M38-A2; format: cell-based; conditions: SM110, read-out: MIC (T. menta.)
Method in brief: (§1)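 MIC read visually as lowest concentration inhibiting growth by at least 80% relative to control after 4 days at 35° C. Trichophyton strains inoculated at 2×10^3 cells/mL final in MOPS-buffered RPMI 1640 (pH 7.0); compounds as 2-fold DMSO series, CLSI M38-A2 basis.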

[2] = test system: Trichophyton rubrum KD-1130; experiment: as above; format: cell-based; conditions: KD1130, read-out: MIC (T. rubrum)
Method in brief: as §1

Row | Structure (SMILES) | MIC [1] | MIC [2]
1 | COc1ncccc1-c1cncnc1Oc1ccc(C(F)(F)F)cc1 [I-330, 5-(2-methoxypyridin-3-yl)-4-[4-(trifluoromethyl)phenoxy]pyrimidine] | ≤ 0.1 µg/mL | ≤ 0.1 µg/mL
2 | COCC(F)(F)c1ccc(Oc2ncccc2-c2cnccc2OC)cn1 [I-349, 2-{[6-(1,1-difluoro-2-methoxyethyl)pyridin-3-yl]oxy}-4′-methoxy-3,3′-bipyridine] | 1.56 to 6.25 µg/mL (≈ 4.18 to 16.7 µM) | 1.56 to 6.25 µg/mL (≈ 4.18 to 16.7 µM)
3 | COc1ccccc1-c1cccnc1Oc1ccc2c(c1)C(=O)CCC2 [I-273, 7-{[3-(2-methoxyphenyl)pyridin-2-yl]oxy}-3,4-dihydronaphthalen-1(2H)-one] | ≤ 0.1 µg/mL | ≤ 0.1 µg/mL
4 | CC(F)(F)c1ccc(Oc2ncccc2-c2cccc3ncoc23)cn1 [I-114, 7-(2-{[6-(1,1-difluoroethyl)pyridin-3-yl]oxy}pyridin-3-yl)benzo[d]oxazole] | 0.2 to 0.78 µg/mL (≈ 0.566 to 2.21 µM) | 0.2 to 0.78 µg/mL (≈ 0.566 to 2.21 µM)
5 | COc1ncccc1-c1cccnc1Oc1ccc(C)cc1 [I-459] | ≤ 0.1 µg/mL | ≤ 0.1 µg/mL
6 | COc1ccncc1-c1cccnc1Oc1ccc2c(c1)CCCC2 [I-267, 4′-methoxy-[(5,6,7,8-tetrahydronaphthalen-2-yl)oxy]-3,3′-bipyridine] | ≤ 0.1 µg/mL | ≤ 0.1 µg/mL
7 | COc1ccccc1-c1cccnc1Oc1cnc2c(c1)CCCC2N(C)C (stereo not shown) [I-143, 3-{[3-(2-methoxyphenyl)pyridin-2-yl]oxy}-N,N-dimethyl-5,6,7,8-tetrahydroquinolin-8-amine] | 0.2 to 0.78 µg/mL (≈ 0.533 to 2.08 µM) | 0.2 to 0.78 µg/mL (≈ 0.533 to 2.08 µM)
8 | COc1ccccc1-c1cccnc1Oc1cnc(C(F)(F)C(F)(F)F)nc1 [I-181, 5-{[3-(2-methoxyphenyl)pyridin-2-yl]oxy}-2-(pentafluoroethyl)pyrimidine] | 0.2 to 0.78 µg/mL (≈ 0.503 to 1.96 µM) | ≤ 0.1 µg/mL
9 | COc1c(F)cncc1-c1cccnc1Oc1ccc(C(C)(F)F)cc1 [I-301, 2-[4-(1,1-difluoroethyl)-phenoxy]-5′-fluoro-4′-methoxy-3,3′-bipyridine] | ≤ 0.1 µg/mL | ≤ 0.1 µg/mL
10 | COc1ccccc1-c1ccnnc1Oc1ccc(C(F)(F)F)nc1 [I-311, 4-(2-methoxyphenyl)-3-{[6-(trifluoromethyl)pyridin-3-yl]oxy}pyridazine] | 0.2 to 0.78 µg/mL (≈ 0.576 to 2.25 µM) | 0.2 to 0.78 µg/mL (≈ 0.576 to 2.25 µM)
11 | C#CCCc1ccc(Oc2ncccc2-c2cccnc2OC)cc1 [I-407, 2-[4-(but-3-yn-1-yl)phenoxy]-2′-methoxy-3,3′-bipyridine] | ≤ 0.1 µg/mL | ≤ 0.1 µg/mL
12 | CC(F)(F)c1ccc(Oc2ncccc2-c2cccc3ocnc23)cn1 [I-113, 4-(2-{[6-(1,1-difluoroethyl)pyridin-3-yl]oxy}-3-yl)benzo[d]oxazole] | ≤ 0.1 µg/mL | 0.2 to 0.78 µg/mL (≈ 0.566 to 2.21 µM)

More lines, now with the values ahead:

Row | MIC [1] | MIC [2] | Structure (SMILES)
13 | ≤ 0.1 µg/mL | ≤ 0.1 µg/mL | Cn1ncc(Cl)c1-c1cccnc1Oc1ccc(C(F)(F)F)cc1 [I-222, 3-(4-chloro-1-methyl-1H-pyrazol-5-yl)-2-[4-(trifluoromethyl)phenoxy]pyridine]
14 | ≤ 0.1 µg/mL | 0.2 to 0.78 µg/mL (≈ 0.469 to 1.83 µM) | COc1cc(F)ccc1-c1cccnc1Oc1ccc(C(F)(F)Cn2ccnc2)nc1 [I-158, 2-{(6-[1,1-difluoro-2-(1H-imidazol-1-yl)ethyl]pyridin-3-yl)oxy}-3-(4-fluoro-2-methoxyphenyl)pyridine]
15 | 1.56 to 6.25 µg/mL (≈ 4.48 to 17.9 µM) | 1.56 to 6.25 µg/mL (≈ 4.48 to 17.9 µM) | Cc1nn(C)c(C)c1-c1cccnc1Oc1ccc(C(F)(F)F)nc1 [I-346, 2-{[6-(trifluoromethyl)pyridin-3-yl]oxy}-3-(1,3,5-trimethyl-1H-pyrazol-4-yl)pyridine]
16 | 0.2 to 0.78 µg/mL (≈ 0.514 to 2 µM) | 0.2 to 0.78 µg/mL (≈ 0.514 to 2 µM) | Cc1nn2c(c1-c1cccnc1Oc1ccc(C(F)(F)F)cc1)OCCCC2 [I-233, 2-methyl-3-{2-[4-(trifluoromethyl)phenoxy]pyridin-3-yl}-5,6,7,8-tetrahydropyrazolo[1,5-b][1,3]oxazepine]
17 | 0.2 to 0.78 µg/mL (≈ 0.493 to 1.92 µM) | 0.2 to 0.78 µg/mL (≈ 0.493 to 1.92 µM) | COc1cc(F)ccc1-c1cccnc1Oc1cnc(CCc2cnn(C)c2)nc1 [I-198, 5-{[3-(4-fluoro-2-methoxyphenyl)pyridin-2-yl]oxy}-2-[2-(1-methyl-1H-pyrazol-4-yl)ethyl]pyrimidine]

From patent publication US10647675B2 (priority 2015, dated 2020)
